{"source": "paper PMC9729598", "about": "(Bioorganic Chemistry, 2022)", "test_system": "SARS-CoV-2 (wuhan-HU-1 variant)", "assay_type": "cell-based", "data": [{"smiles": "C=C(C)[C@@H]1CC[C@]2(C(=O)O)CC[C@]3(C)[C@H](CC[C@@H]4[C@@]5(C)CC[C@H](O)C(C)(C)[C@@H]5CC[C@]43C)[C@@H]12", "note": "[BA, Betulinic acid]", "values": [{"measurement": "anti-SARS-CoV-2 activity", "value": "virtually inactive"}]}]}
